Source: the NIST ThermoML archive (doi:10.1021/je1002237)
± gives the expanded uncertainty stated by the source.

Assay: xn = mol fraction of the nth substance listed
Conditions: 101 kPa, Liquid

CC1COC(=O)O1 (configuration not stated) [4-methyl-1,3-dioxolan-2-one] + CCOS(=O)(=O)[O-].CCn1cc[n+](C)c1
mass density [kg/m3]
Conditions | 278.15 K | 283.15 K | 288.15 K | 293.15 K | 298.15 K | 303.15 K | 308.15 K
x1 = 0.0266 | 1250.69 ± 1.1 | 1247.12 ± 1.1 | 1243.68 ± 1.1 | 1240.27 ± 1.1 | 1236.86 ± 1.1 | 1233.45 ± 1.1 | 1230.06 ± 1.1
x1 = 0.0513 | 1250.41 ± 1.1 | 1246.82 ± 1.1 | 1243.39 ± 1.1 | 1239.97 ± 1.1 | 1236.53 ± 1.1 | 1233.11 ± 1.1 | 1229.69 ± 1
x1 = 0.0755 | 1250.13 ± 1.1 | 1246.55 ± 1.1 | 1243.1 ± 1.1 | 1239.64 ± 1.1 | 1236.19 ± 1.1 | 1232.74 ± 1 | 1229.3 ± 1
x1 = 0.1231 | 1249.6 ± 1.1 | 1246.04 ± 1.1 | 1242.54 ± 1.1 | 1239.04 ± 1 | 1235.55 ± 1 | 1232.06 ± 1 | 1228.58 ± 1
x1 = 0.1825 | 1248.89 ± 1 | 1245.35 ± 1 | 1241.79 ± 1 | 1238.2 ± 1 | 1234.68 ± 1 | 1231.13 ± 1 | 1227.6 ± 0.99
x1 = 0.2548 | 1248.05 ± 1 | 1244.41 ± 1 | 1240.76 ± 1 | 1237.11 ± 1 | 1233.49 ± 0.99 | 1229.88 ± 0.98 | 1226.27 ± 0.97
x1 = 0.3178 | 1247.17 ± 1 | 1243.45 ± 0.99 | 1239.73 ± 0.98 | 1236.01 ± 0.98 | 1232.32 ± 0.97 | 1228.64 ± 0.96 | 1224.96 ± 0.95
x1 = 0.3778 | 1246.4 ± 0.98 | 1242.61 ± 0.98 | 1238.81 ± 0.97 | 1235.04 ± 0.96 | 1231.27 ± 0.95 | 1227.52 ± 0.94 | 1223.78 ± 0.93
x1 = 0.4859 | 1244.38 ± 0.95 | 1240.42 ± 0.95 | 1236.47 ± 0.94 | 1232.54 ± 0.93 | 1228.62 ± 0.92 | 1224.71 ± 0.91 | 1220.83 ± 0.9
x1 = 0.5725 | 1242.6 ± 0.93 | 1238.5 ± 0.92 | 1234.4 ± 0.91 | 1230.34 ± 0.91 | 1226.28 ± 0.9 | 1222.25 ± 0.89 | 1218.22 ± 0.88
x1 = 0.6971 | 1239.08 ± 0.9 | 1234.73 ± 0.89 | 1230.4 ± 0.88 | 1226.09 ± 0.88 | 1221.79 ± 0.87 | 1217.52 ± 0.86 | 1213.25 ± 0.85
x1 = 0.7812 | 1235.9 ± 0.88 | 1231.35 ± 0.87 | 1226.82 ± 0.86 | 1222.31 ± 0.85 | 1217.81 ± 0.85 | 1213.33 ± 0.84 | 1208.86 ± 0.83
x1 = 0.8427 | 1232.95 ± 0.87 | 1228.23 ± 0.86 | 1223.51 ± 0.85 | 1218.83 ± 0.84 | 1214.15 ± 0.83 | 1209.49 ± 0.82 | 1204.84 ± 0.81
x1 = 0.8893 | 1230.36 ± 0.86 | 1225.48 ± 0.85 | 1220.62 ± 0.84 | 1215.78 ± 0.83 | 1210.95 ± 0.82 | 1206.14 ± 0.81 | 1201.34 ± 0.8
x1 = 0.9259 | 1227.81 ± 0.85 | 1222.79 ± 0.84 | 1217.79 ± 0.83 | 1212.81 ± 0.82 | 1207.84 ± 0.81 | 1202.89 ± 0.8 | 1197.94 ± 0.79
x1 = 0.9554 | 1225.35 ± 0.84 | 1220.2 ± 0.83 | 1215.07 ± 0.82 | 1209.96 ± 0.81 | 1204.85 ± 0.8 | 1199.76 ± 0.79 | 1194.68 ± 0.78
x1 = 0.9797 | 1223.22 ± 0.83 | 1217.97 ± 0.82 | 1212.73 ± 0.81 | 1207.51 ± 0.8 | 1202.3 ± 0.79 | 1197.09 ± 0.78 | 1191.9 ± 0.77
x1 = 1 | 1220.93 ± 0.83 | 1215.57 ± 0.82 | 1210.21 ± 0.81 | 1204.88 ± 0.8 | 1199.55 ± 0.78 | 1194.23 ± 0.77 | 1188.91 ± 0.76

CC(C)=O [acetone] + CCOS(=O)(=O)[O-].CCn1cc[n+](C)c1
x1 = 1
Conditions | mass density [kg/m3]
278.15 K | 807.75 ± 0.67
283.15 K | 802.15 ± 0.68
288.15 K | 796.52 ± 0.69
293.15 K | 790.86 ± 0.7
298.15 K | 785.13 ± 0.71
303.15 K | 779.38 ± 0.72
308.15 K | 773.58 ± 0.73

CC#N [acetonitrile] + CCOS(=O)(=O)[O-].CCn1cc[n+](C)c1
x1 = 1
Conditions | mass density [kg/m3]
278.15 K | 798.01 ± 0.68
283.15 K | 792.69 ± 0.69
288.15 K | 787.33 ± 0.7
293.15 K | 781.97 ± 0.71
298.15 K | 776.56 ± 0.72
303.15 K | 771.14 ± 0.73
308.15 K | 765.68 ± 0.74

ClCCl [dichloromethane] + CCOS(=O)(=O)[O-].CCn1cc[n+](C)c1
mass density [kg/m3]
Conditions | 278.15 K | 283.15 K | 288.15 K | 293.15 K | 298.15 K | 303.15 K | 308.15 K
x1 = 0.0375 | 1252.39 ± 1.1 | 1248.82 ± 1.1 | 1245.38 ± 1.1 | 1241.96 ± 1.1 | 1238.55 ± 1.1 | 1235.13 ± 1.1 | 1231.72 ± 1.1
x1 = 0.0731 | 1254.22 ± 1.1 | 1250.64 ± 1.1 | 1247.19 ± 1.1 | 1243.72 ± 1.1 | 1240.27 ± 1.1 | 1236.81 ± 1 | 1233.36 ± 1
x1 = 0.1117 | 1255.78 ± 1.1 | 1252.22 ± 1.1 | 1248.72 ± 1.1 | 1245.22 ± 1.1 | 1241.73 ± 1 | 1238.24 ± 1 | 1234.76 ± 1
x1 = 0.1664 | 1258.85 ± 1.1 | 1255.31 ± 1.1 | 1251.75 ± 1 | 1248.14 ± 1 | 1244.63 ± 1 | 1241.08 ± 1 | 1237.55 ± 1
x1 = 0.2488 | 1263.74 ± 1 | 1260.06 ± 1 | 1256.38 ± 1 | 1252.7 ± 1 | 1249.03 ± 1 | 1245.37 ± 1 | 1241.71 ± 0.99
x1 = 0.3308 | 1268.9 ± 1 | 1265.09 ± 1 | 1261.28 ± 1 | 1257.48 ± 1 | 1253.69 ± 0.99 | 1249.9 ± 0.98 | 1246.13 ± 0.97
x1 = 0.4023 | 1274.69 ± 1 | 1270.74 ± 1 | 1266.78 ± 1 | 1262.82 ± 0.99 | 1258.9 ± 0.98 | 1254.97 ± 0.97 | 1251.05 ± 0.96
x1 = 0.4624 | 1279.33 ± 1 | 1275.26 ± 1 | 1271.18 ± 0.99 | 1267.11 ± 0.98 | 1263.05 ± 0.97 | 1259 ± 0.96 | 1254.96 ± 0.96
x1 = 0.5776 | 1290.69 ± 1 | 1286.28 ± 1 | 1281.87 ± 0.99 | 1277.47 ± 0.98 | 1273.07 ± 0.97 | 1268.69 ± 0.96 | 1264.32 ± 0.95
x1 = 0.6593 | 1299.95 ± 1 | 1295.23 ± 1 | 1290.51 ± 0.99 | 1285.8 ± 0.98 | 1281.09 ± 0.97 | 1276.39 ± 0.96 | 1271.69 ± 0.95
x1 = 0.7684 | 1315.91 ± 1 | 1310.52 ± 1 | 1305.14 ± 1 | 1299.77 ± 0.99 | 1294.38 ± 0.98 | 1289 ± 0.97 | 1283.61 ± 0.96
x1 = 0.8377 | 1327.28 ± 1 | 1321.28 ± 1 | 1315.26 ± 1 | 1309.25 ± 1 | 1303.21 ± 0.99 | 1297.16 ± 0.97 | 1291.11 ± 0.96
x1 = 0.8856 | 1335.58 ± 1.1 | 1328.97 ± 1 | 1322.35 ± 1 | 1315.72 ± 1 | 1309.05 ± 0.99 | 1302.36 ± 0.98 | 1295.65 ± 0.97
x1 = 0.9207 | 1341.3 ± 1.1 | 1334.16 ± 1 | 1326.99 ± 1 | 1319.81 ± 1 | 1312.58 ± 1 | 1305.32 ± 0.98 | 1298.03 ± 0.97
x1 = 0.9475 | 1345.71 ± 1.1 | 1338.05 ± 1.1 | 1330.35 ± 1 | 1322.64 ± 1 | 1314.87 ± 1 | 1307.06 ± 0.99 | 1299.21 ± 0.97
x1 = 0.9687 | 1349.06 ± 1.1 | 1340.91 ± 1.1 | 1332.71 ± 1 | 1324.48 ± 1 | 1316.18 ± 1 | 1307.85 ± 0.99 | 1299.46 ± 0.97
x1 = 0.9858 | 1351.32 ± 1.1 | 1342.72 ± 1.1 | 1334.07 ± 1 | 1325.38 ± 1 | 1316.61 ± 1 | 1307.8 ± 0.98 | 1298.92 ± 0.97
x1 = 1 | 1352.84 ± 1.1 | 1343.8 ± 1.1 | 1334.71 ± 1 | 1325.58 ± 1 | 1316.34 ± 1 | 1307.06 ± 0.98 | 1297.69 ± 0.96

CCO [ethanol] + CCOS(=O)(=O)[O-].CCn1cc[n+](C)c1
x1 = 1
Conditions | mass density [kg/m3]
278.15 K | 802.12 ± 0.68
283.15 K | 797.89 ± 0.68
288.15 K | 793.63 ± 0.69
293.15 K | 789.37 ± 0.7
298.15 K | 785.08 ± 0.71
303.15 K | 780.77 ± 0.71
308.15 K | 776.42 ± 0.72

CO [methanol] + CCOS(=O)(=O)[O-].CCn1cc[n+](C)c1
x1 = 1
Conditions | mass density [kg/m3]
278.15 K | 805.53 ± 0.67
283.15 K | 800.85 ± 0.68
288.15 K | 796.16 ± 0.69
293.15 K | 791.49 ± 0.69
298.15 K | 786.77 ± 0.7
303.15 K | 782.05 ± 0.71
308.15 K | 777.3 ± 0.72

O [water] + CCOS(=O)(=O)[O-].CCn1cc[n+](C)c1
x1 = 1
Conditions | mass density [kg/m3]
278.15 K | 999.96 ± 0.45
283.15 K | 999.69 ± 0.45
